One assay concerns HeLa cells. The assay can be described thus: HeLa cell 24 hr ploidy assay. To be noted: Homo sapiens, 24 hrs treatment, DNA ploidy, average, read-out: 24h_4N Ploidy EC50_IP (uM Avg). Type of assay: cell-based. Here is the method:
The purpose of this assay is to evaluate the ability of selected individual compounds to induce Deoxyribonucleic acid (DNA) content (ploidy) in cells through failed cell division. Cell cycle analysis is a rapid and efficient way to evaluate the status of DNA content (ploidy) of a given cell. HeLa cells (1×10^4 HeLa cells/well) in 100 ul of media (MEM+10% FBS) were plated in 96-well plates (Packard View) and cultured for 24 hrs at 37° C. maintained in a 5% CO2 atmosphere. The following day, cells were treated for 24 hrs with inhibitor compounds (10 pt. Dose ranging from 0.0024-1.25 umol/L). The compounds were serially diluted in DMSO (0.25% final concentration). The cells were fixed (3.7% Formaldehyde and 1% glutaraldehyde) and permeabilized (1×PBS with 1% BSA an d0.2% Triton X-100) in preparation for nuclear staining. The well plates were stained for 45 minutes at RT in the dark using Hoechest 33342 nuclear stain at 0.5 ug.ml (Stock of 10 mg/ml, Invitrogen, Calif., Cat #H3570). The nuclear stain was removed by aspiration and the cells were washed with wash buffer. A Cellomics Array Scan Vti plate reader was used to acquire the DNA ploidy data of the cells using Cell Cycle bioapplication. Numbers for each of “valid cell count/well”, “% of 4N cells” and “% of >4Ncells” were calculated with the assistance of an Activity Base 5.1ca software and dose curves were generated using an XLFit software. With XLFit, final EC50 IP and EC50 transit values, as well as the Max and Min, were calculated for each curve.

The next assay deals with T1, AuroraB (Homo sapiens, UniProt Q96GD4).
T1 construct: 20 μL of AuroraB FL His; His
Nature of the assay: AuroraB Homogeneous Time Resolved Fluorescent (HTRF) kinase assay. It is filed as biochemical. To be noted: average; ATP 23 μM; read-out: AurB_IC50_IP (uM Avg). Here is the method:
The AuroraB HTRF assay begins with AuroraB in the presence of ATP phosphorylating the biotinylated peptide Histone H3. The reaction incubates for about 90 min. the reaction is quentched by addition of detection reagents, which stop the reaction by diluting out the enzyme and chelating the metals due to the presence of EDTA. After addition, the assay is incubated for about 60 min to allow detection reagents to equilibrate.
The AuroraB HTRF assay comprises 1 μL of compound in 100% DMSO, 20 μL of ATP and biotinylated Histone H3, and 20 μL of AuroraB FL His for a final volume of 41 μL. The final concentration of Histone H3 is 0.1 μM. The final concentration of ATP is 23 μM (Km(app)=23 μM+/−2.6) and the final concentration of AuroraB is 400 pM. Buffer conditions are as follows: 50 mM HEPES pH 7.5, 5 mM NaCl, 0.5 mM MgCl, 0.5 mM MnCl, 2 mM DTT, 0.05% BSA.
The assay is quenched and stopped with 160 μL of detection reagent. Detection reagents are as follows: Buffer made of 50 mM Tris, pH 7.5, 100 mM NaCl, 3 mM EDTA, 0.05% BSA, 0.1% Tween20. Added to this buffer prior to reading is Steptavidin allophycocyanin (SA-APC) at a final conc in the assay of 0.001 mg/mL, and europilated anti-phosphoHistoneH3 Ab (Eu-anti-HisH3) at a final conc of 0.064 nM.
The assay plate is read in either a Discovery or a RubyStar. The eu-anti-HisH3 is excited at 320 nm and emits at 615 nm to excite the SA-APC which in turn emits at 655 nm. The ratio of SA-APC at 655 nm (excited due to close proximity to the Eu-anti-HisH3 because of phosphorylation of the peptide) to free Eu-anti-HisH3 at 615 nm will give substrate phosphorylation.
Many of the Examples described herein were tested, and fund to be active compounds. Table I includes related biological data, which may be interpreted using the activity gauge below.

For another assay, the target named is T2, AuroraA-TPX2 (Homo sapiens, UniProt O14965).
T2 construct: 20 μL of AuroraA-TPX2 KD GST; GST
T2 sequence (O14965 133-383 limits assumed): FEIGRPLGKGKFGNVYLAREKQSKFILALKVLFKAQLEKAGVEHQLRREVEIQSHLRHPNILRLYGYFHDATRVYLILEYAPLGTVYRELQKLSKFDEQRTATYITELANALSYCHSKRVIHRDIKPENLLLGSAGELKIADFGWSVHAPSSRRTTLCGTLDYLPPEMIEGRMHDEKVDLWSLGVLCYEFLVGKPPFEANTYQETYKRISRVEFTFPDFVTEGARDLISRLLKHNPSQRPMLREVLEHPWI
T2 sequence (Q9ULW0 1-43 partner limits assumed): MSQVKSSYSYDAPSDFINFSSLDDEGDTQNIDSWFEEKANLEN
The assay can be described thus: AuroraA-TPX2 Homogeneous Time Resolved Fluorescent (HTRF) kinase assay. It is filed as biochemical. To be noted: average; ATP about 1 μM; read-out: AurA_IC50_IP (uM Avg). The procedure: The Aurora-A HTRF assay begins with Aurora-A in the presence of ATP phosphorylating the biotinylated peptide PLK. The reaction incubates for about 120 min. Detection reagents are added to quench the reaction. These agents stop the reaction by diluting out the enzyme and chelating the metals due to the presence of EDTA. After addition, the assay is incubated overnight to allow the detection reagents to equilibrate.
The AuroraA HTRF assay comprises 1 μL of compound in 100% DMSO, 20 μL of ATP and biotinylated PLK, and 20 μL of AuroraA-TPX2 KD GST for a final volume of about 41 μL. The final concentration of PLK is about 1 μM. The final concentration of ATP is about 1 μM (Km(app)=1 μM+/−0.1) and the final concentration of AuroraA is about 5 nM. Buffer conditions are as follows: 60 mM HEPES pH 7.5, 25mM NaCl, 10 mM MgCl, 2 mM DTT, 0.05% BSA.
The assay is quenched and stopped with 160 μL of detection reagent. Detection reagents are as follows: Buffer made of 50 mM Tris, pH 7.5, 100 mM NaCl, 3 mM EDTA, 0.05% BSA, 0.1% Tween20. Added to this buffer prior to reading is Steptavidin allophycocyanin (SA-APC) at a final conc in the assay of 0.0005 mg/mL, and europilated anti-phosphoPLK Ab (Eu-anti-PLK) at a final conc of 0.02 nM.
The assay plate is read in either a Discovery or a RubyStar. The eu-anti-PLK is excited at 320 nm and emits at 615 nm to excite the SA-APC which in turn emits at 655 nm. The ratio of SA-APC at 655 nm (excited due to close proximity to the Eu-anti-PLK because of phosphorylation of the peptide) to free Eu-anti-PLK at 615 nm will give substrate phosphorylation.
Many of the Examples described herein were tested and found to be active compounds. Table I includes related biological data, which may be interpreted using the activity gauge below.
Background: In TR-FRET formats the signal depends on donor and acceptor labels being close together.

Bounds are passed on as bounds.

The results in this text go back to patent US20110301162A1, “AURORA KINASE MODULATORS AND METHODS OF USE” (AMGEN INC., priority 2008, published 2011).

T1 sequence (Q96GD4 whole entry): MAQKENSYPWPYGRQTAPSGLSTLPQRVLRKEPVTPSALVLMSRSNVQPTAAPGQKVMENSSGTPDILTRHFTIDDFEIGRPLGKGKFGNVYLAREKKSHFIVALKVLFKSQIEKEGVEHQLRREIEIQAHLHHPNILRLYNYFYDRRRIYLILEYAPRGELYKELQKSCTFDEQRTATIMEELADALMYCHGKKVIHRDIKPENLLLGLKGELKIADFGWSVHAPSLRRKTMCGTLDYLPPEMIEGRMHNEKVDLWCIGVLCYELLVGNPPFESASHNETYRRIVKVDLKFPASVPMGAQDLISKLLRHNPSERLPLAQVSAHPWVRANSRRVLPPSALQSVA

On to `CNC(=O)c1cc(Sc2ccc(Nc3nnc(-c4ccc(Cl)cc4)c4ccccc34)cc2)ccn1` [Example 25, 4-((4-((4-(4-chlorophenyl)-1-phthalazinyl)amino)phenyl)thio)-N-methyl-2-pyridinecarboxamide], for which the EC50 in the assay on HeLa cells lay within 0.1 to 0.5 µM. Also, the IC50 at AuroraB lay within 0.1 to 0.5 µM; on AuroraA-TPX2 it was 1 to 5 µM.
`CNC(=O)c1cc(Oc2ccc(Nc3nnc(-c4ccc(Cl)cc4)c4ccccc34)cc2)ccn1` [Example 26, 4-((4-((4-(4-chlorophenyl)-1-phthalazinyl)amino)phenyl)oxy)-N-methyl-2-pyridinecarboxamide]: the EC50 in the assay with HeLa cells was 0.1 to 0.5 µM. Also, the IC50 at AuroraB and on AuroraA-TPX2 was 0.1 to 0.5 µM in each case.
On to `Nc1cc(Sc2ccc(Nc3nnc(-c4ccc(Cl)cc4)c4ccccc34)cc2)ccn1` [Example 27, N-(4-((2-amino-4-pyridinyl)thio)phenyl)-4-(4-chlorophenyl)-1-phthalazinamine], for which the EC50 in the assay on HeLa cells lay in the range of 0.1 to 0.5 µM. Also, the IC50 at AuroraB was less than 0.1 µM; on AuroraA-TPX2, 0.1 to 0.5 µM.
Consider `CNc1cc(Sc2ccc(Nc3nnc(-c4ccc(Cl)cc4)c4ccccc34)cc2)ccn1` [Example 28, 4-(4-chlorophenyl)-N-(4-((2-(methylamino)-4-pyridinyl)thio)phenyl)-1-phthalazinamine], for which, in the assay with HeLa cells, the EC50 lay within 0.1 to 0.5 µM. Further, the IC50 was less than 0.1 µM at AuroraB and 0.1 to 0.5 µM at AuroraA-TPX2.
In the case of `CS(=O)(=O)CCNc1cc(Oc2ccc(Nc3nnc(-c4ccc(Cl)cc4)c4ccccc34)cc2)ccn1` [Example 29, 4-(4-chlorophenyl)-N-(4-((2-((2-(methylsulfonyl)ethyl)amino)-4-pyridinyl)oxy)phenyl)-1-phthalazinamine], the EC50 in the assay with HeLa cells is 1 to 5 µM. Besides, the IC50 at AuroraB and on AuroraA-TPX2 was 0.1 to 0.5 µM throughout.
Consider `Clc1ccc(-c2nnc(Nc3ccc(Oc4ccnc(/C=C/c5ccccc5)n4)cc3)c3ccccc23)cc1` [Example 30, 4-(4-chlorophenyl)-N-(4-((2-((E)-2-phenylethenyl)-4-pyrimidinyl)oxy)phenyl)-1-phthalazinamine], for which, in the assay on HeLa cells, the EC50 was 0.1 to 0.5 µM. In addition, the IC50 is less than 0.1 µM at AuroraB and 0.1 to 0.5 µM on AuroraA-TPX2.
As to `OCCNc1nccc(Sc2ccc(Nc3nnc(-c4ccccc4)c4ccccc34)cc2)n1` [Example 31, 2-((4-((4-((4-phenyl-1-phthalazinyl)amino)phenyl)sulfanyl)-2-pyrimidinyl)amino)ethanol], in the assay with HeLa cells, the EC50 lay within 0.1 to 0.5 µM. The IC50 on AuroraB is less than 0.1 µM; on AuroraA-TPX2, 0.1 to 0.5 µM.
As to `OCCNc1nccc(Sc2ccc(Nc3nnc(-c4ccc(Cl)cc4)c4ccccc34)cc2)n1` [Example 32, 2-((4-((4-((4-(4-chlorophenyl)-1-phthalazinyl)amino)phenyl)sulfanyl)-2-pyrimidinyl)amino)ethanol], the EC50 in the assay on HeLa cells is less than 0.1 µM. Besides, the IC50 on AuroraB and at AuroraA-TPX2 was less than 0.1 µM in each case.
For `CNCCNc1nccc(Sc2ccc(Nc3nnc(-c4ccccc4)c4ccccc34)cc2)n1` [Example 33, N-methyl-N′-(4-((4-((4-phenyl-1-phthalazinyl)amino)phenyl)sulfanyl)-2-pyrimidinyl)-1,2-ethanediamine], in the assay with HeLa cells, the EC50 was in the range of 1 to 5 µM. Moreover, the IC50 on AuroraB was 1 to 5 µM.
With `CNCCNc1nccc(Sc2ccc(Nc3nnc(-c4ccc(Cl)cc4)c4ccccc34)cc2)n1` [Example 34, N-(4-((4-((4-(4-chlorophenyl)-1-phthalazinyl)amino)phenyl)sulfanyl)-2-pyrimidinyl)-N′-methyl-1,2-ethanediamine], the EC50 with HeLa cells lay in the range of 0.1 to 0.5 µM. In addition, the results for the IC50 on AuroraB and on AuroraA-TPX2 were 0.5 to 1 µM and 1 to 5 µM, respectively.
For `Clc1ccc(-c2nnc(Nc3ccc(Sc4ccnc(/C=C/c5ccccc5)n4)cc3)c3ccccc23)cc1` [Example 35, 4-(4-chlorophenyl)-N-(4-((2-((E)-2-phenylethenyl)-4-pyrimidinyl)sulfanyl)phenyl)-1-phthalazinamine], in that order: less than 0.1 µM, less than 0.1 µM and 0.1 to 0.5 µM.
`Clc1ccc(-c2nnc(Nc3ccc(Oc4ccnc(/C=C/c5ccccc5)c4)cc3)c3ccccc23)cc1` [Example 40, 4-(4-chlorophenyl)-N-(4-((2-((E)-2-phenylethenyl)-4-pyridinyl)oxy)phenyl)-1-phthalazinamine]: the IC50 at AuroraB was less than 0.1 µM; on AuroraA-TPX2, 0.1 to 0.5 µM.
The like results for `Cc1ccc(-c2nnc(Nc3ccc(Sc4ccnc(-c5cc6ccccc6[nH]5)n4)cc3)c3ccccc23)cc1N` [Example 41, 4-(3-amino-4-methylphenyl)-N-(4-((2-(1H-indol-2-yl)-4-pyrimidinyl)sulfanyl)phenyl)-1-phthalazinamine] were, in that order, less than 0.1 µM and 0.1 to 0.5 µM.
With `c1ccc(-c2nnc(Nc3ccc(Sc4ccnc(-c5cc6ccccc6[nH]5)n4)cc3)c3ccccc23)cc1` [Example 42, N-(4-((2-(1H-indol-2-yl)-4-pyrimidinyl)sulfanyl)phenyl)-4-phenyl-1-phthalazinamine], the EC50 with HeLa cells lay in the range of 1 to 5 µM. At AuroraB, the IC50 lay in the range of 0.1 to 0.5 µM.
For `CSc1nccc(Oc2ccc(Nc3nnc(-c4ccccc4)c4ccccc34)cc2)n1` [Example 43, N-(4-((2-(methylthio)-4-pyrimidinyl)oxy)phenyl)-4-phenyl-1-phthalazinamine], in that order: 0.1 to 0.5 µM and 1 to 5 µM.
